Reference: US20240116985A1, “STAPLED PEPTIDES AND METHODS THEREOF” (priority 2020, published 2024)

Assays:
[1] = target: T1, full-length beta-Catenin (Uniprot ID P35222) (Homo sapiens, UniProt P35222); assay: Fluorescence polarization IC50 (beta-catenin / 5FAM-TCF4 10-53 competition); format: binding; details: fluorescence polarization; read-out: beta-Catenin FP IC50
T1 construct: 10 nM full-length beta-Catenin (Uniprot ID P35222)
T1 sequence (P35222 1-781): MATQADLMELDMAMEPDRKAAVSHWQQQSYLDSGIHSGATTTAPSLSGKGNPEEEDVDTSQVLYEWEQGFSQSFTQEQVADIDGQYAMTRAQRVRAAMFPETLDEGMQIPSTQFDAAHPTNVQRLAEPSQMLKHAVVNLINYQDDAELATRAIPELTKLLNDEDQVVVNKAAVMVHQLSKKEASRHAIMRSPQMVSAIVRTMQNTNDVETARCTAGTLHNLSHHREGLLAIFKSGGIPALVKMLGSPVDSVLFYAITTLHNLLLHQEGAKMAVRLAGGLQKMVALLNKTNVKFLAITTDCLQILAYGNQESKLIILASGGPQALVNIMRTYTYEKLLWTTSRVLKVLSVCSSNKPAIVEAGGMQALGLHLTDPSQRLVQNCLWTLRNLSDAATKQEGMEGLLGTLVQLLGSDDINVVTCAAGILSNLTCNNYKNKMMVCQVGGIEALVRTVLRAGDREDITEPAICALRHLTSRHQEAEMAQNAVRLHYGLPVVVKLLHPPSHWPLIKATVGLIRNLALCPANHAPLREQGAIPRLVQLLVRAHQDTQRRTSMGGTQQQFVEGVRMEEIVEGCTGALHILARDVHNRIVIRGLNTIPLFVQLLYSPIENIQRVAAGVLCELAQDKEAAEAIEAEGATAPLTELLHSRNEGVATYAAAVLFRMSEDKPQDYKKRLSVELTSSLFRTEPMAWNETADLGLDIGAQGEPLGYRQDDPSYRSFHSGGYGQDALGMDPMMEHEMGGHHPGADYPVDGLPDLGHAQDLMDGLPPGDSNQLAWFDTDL

[2] = target: T2, beta-catenin/TCF4 engagement (Homo sapiens, UniProt P35222); assay: Nano-BRET target engagement assay (B-cat-Halo & TCF4-Luc in HEK293 cells); format: cell-based; details: read-out: NanoBRET Abs IC50
T2 construct: expressed in transfected cells; host or cells: HEK293
T2 sequence (P35222 1-781): T1 sequence (P35222 1-781)

| SMILES | IC50 [1] [nM] | IC50 [2] [nM] |
| --- | --- | --- |
| CC(=O)N1CCC[C@]12CC=CCCCC1(CCCC=CCCCOC(=O)N3CC[C@@](C(=O)N[C@@H](Cc4ccccc4Cl)C(=O)N[C@@H](Cc4csc5ccccc45)C(N)=O)(C3)NC(=O)[C@H](CC(C)C)NC(=O)[C@H](Cc3ccccc3)NC(=O)[C@H](C)NC(=O)[C@H](C)NC(=O)[C@H](Cc3cccc(C(=O)O)c3)NC(=O)[C@H](CC(=O)O)NC1=O)NC(=O)[C@H](CC(C)(C)C)NC(=O)[C@H](CC(=O)O)NC2=O (stereo partly drawn) [I-1852, Ac-PL3-Asp-Npg-B5-Asp-3COOHF-Ala-Ala-Phe-Leu-PyrS2-2C1F-BztA-NH2] | 48 | 4900 |
| CC(=O)N1CCC[C@]12CC=CCCCC1(CCCC=CCCCOC(=O)N3CC[C@@](C(=O)N[C@@H](Cc4ccsc4)C(=O)N[C@@H](Cc4csc5ccccc45)C(=O)N[C@@H](CCC(N)=O)C(N)=O)(C3)NC(=O)[C@H](Cn3cc(CN(C)C)nn3)NC(=O)[C@H](Cc3ccccc3)NC(=O)[C@H](C)NC(=O)[C@H](C)NC(=O)[C@H](CN(CC(=O)O)CC(F)(F)F)NC(=O)[C@H](CC(=O)O)NC1=O)NC(=O)[C@H](CC(C)(C)C)NC(=O)[C@H](CC(=O)O)NC2=O (stereo partly drawn) [I-1861, Ac-PL3-Asp-Npg-B5-Asp-TfeGA-Ala-Ala-Phe-[CH2NMe2]TriAzDap-PyrS2-3Thi-BztA-Gln-NH2] | 14 | 37300 |
| CC(=O)N1CCC[C@]12CC=CCCCC1(CCCC=CCCCOC(=O)N3CC[C@@](C(=O)N[C@@H](Cc4ccsc4)C(=O)N[C@@H](Cc4csc5ccccc45)C(=O)N[C@@H](CCC(N)=O)C(N)=O)(C3)NC(=O)[C@H](Cn3cc(CN4CCNCC4)nn3)NC(=O)[C@H](Cc3ccccc3)NC(=O)[C@H](C)NC(=O)[C@H](C)NC(=O)[C@H](CN(CC(=O)O)CC(F)(F)F)NC(=O)[C@H](CC(=O)O)NC1=O)NC(=O)[C@H](CC(C)(C)C)NC(=O)[C@H](CC(=O)O)NC2=O (stereo partly drawn) [I-1864, Ac-PL3-Asp-Npg-B5-Asp-TfeGA-Ala-Ala-Phe-[CH2Ppz]TriAzDap-PyrS2-3Thi-BztA-Gln-NH2] | 14 | > 20000 |
| CC(=O)N1CCC[C@]12CC=CCCCC1(CCCC=CCCCOC(=O)N3CC[C@@](C(=O)N[C@@H](Cc4ccsc4)C(=O)N[C@@H](Cc4csc5ccccc45)C(=O)N[C@@H](CCC(N)=O)C(N)=O)(C3)NC(=O)[C@H](Cn3cc(CN4CCOCC4)nn3)NC(=O)[C@H](Cc3ccccc3)NC(=O)[C@H](C)NC(=O)[C@H](C)NC(=O)[C@H](CN(CC(=O)O)CC(F)(F)F)NC(=O)[C@H](CC(=O)O)NC1=O)NC(=O)[C@H](CC(C)(C)C)NC(=O)[C@H](CC(=O)O)NC2=O (stereo partly drawn) [I-1865, Ac-PL3-Asp-Npg-B5-Asp-TfeGA-Ala-Ala-Phe-[MorphCH2]TriAzDap-PyrS2-3Thi-BztA-Gln-NH2] | 10 | > 20000 |
| CC(=O)N1CCC[C@]12CC=CCCCC1(CCCC=CCCCOC(=O)N3CC[C@@](C(=O)N[C@@H](Cc4ccsc4)C(=O)N[C@@H](Cc4csc5ccccc45)C(=O)N[C@@H](CCC(N)=O)C(N)=O)(C3)NC(=O)[C@H](Cn3cc(CN4CCOCC4)nn3)NC(=O)[C@H](Cc3ccccc3)NC(=O)[C@H](C)NC(=O)[C@H](C)NC(=O)[C@H](CN(CC(=O)O)CC(F)(F)F)NC(=O)[C@H](CC(=O)O)NC1=O)NC(=O)[C@H](CC(C)(C)C)NC(=O)[C@H](CC(=O)O)NC2=O (stereo partly drawn) [I-1866, Ac-PL3-Asp-Npg-B5-Asp-TfeGA-Ala-Ala-Phe-[MorphCH2]TriAzDap-PyrS2-3Thi-BztA-Gln-NH2] | 26 | > 20000 |
| CC(=O)N1CCC[C@]12CC=CCCCC1(CCCC=CCCCOC(=O)N3CC[C@@](C(=O)N[C@@H](Cc4ccsc4)C(=O)N[C@@H](Cc4csc5ccccc45)C(=O)N[C@@H](CCC(N)=O)C(N)=O)(C3)NC(=O)[C@H](Cn3cc(CN4CCOCC4)nn3)NC(=O)[C@H](Cc3ccccc3)NC(=O)[C@H](C)NC(=O)[C@H](C)NC(=O)[C@H](CN(CC(=O)O)CC(F)(F)F)NC(=O)[C@H](CC(=O)O)NC1=O)NC(=O)[C@H](CC(C)(C)C)NC(=O)[C@H](CC(=O)O)NC2=O (stereo partly drawn) [I-1867, Ac-PL3-Asp-Npg-B5-Asp-TfeGA-Ala-Ala-Phe-[MorphCH2]TriAzDap-PyrS2-3Thi-BztA-Gln-NH2] | 7 | 16400 |
| CC(=O)N1CCC[C@]12CC=CCCCC1(CCCC=CCCCOC(=O)N3CC[C@@](C(=O)N[C@@H](Cc4ccsc4)C(=O)N[C@@H](Cc4csc5ccccc45)C(=O)N[C@@H](CCC(N)=O)C(N)=O)(C3)NC(=O)[C@H](CC(N)=O)NC(=O)[C@H](Cc3ccccc3)NC(=O)[C@H](C)NC(=O)[C@H](C)NC(=O)[C@H](CCCNC(=N)N)NC(=O)[C@H](CC(=O)O)NC1=O)NC(=O)[C@H](CC(C)(C)C)NC(=O)[C@H](CC(=O)O)NC2=O (stereo partly drawn) [I-1890, Ac-PL3-Asp-Npg-B5-Asp-Arg-Ala-Ala-Phe-Asn-PyrS2-3Thi-BztA-Gln-NH2] | 31 | > 20000 |
| CC(=O)N1CCC[C@]12CC=CCCCC1(CCCC=CCCCOC(=O)N3CC[C@@](C(=O)N[C@@H](CC4CCC4)C(=O)N[C@@H](Cc4csc5ccccc45)C(=O)N[C@@H](CO)C(N)=O)(C3)NC(=O)[C@H](CC(C)C)NC(=O)[C@H](Cc3ccccc3)NC(=O)[C@H](C)NC(=O)[C@H](C)NC(=O)[C@H](Cc3cccc(C(=O)O)c3)NC(=O)[C@H](CC(=O)O)NC1=O)NC(=O)[C@H](CC(C)(C)C)NC(=O)[C@H](CC(=O)O)NC2=O (stereo partly drawn) [I-1898, Ac-PL3-Asp-Npg-B5-Asp-3COOHF-Ala-Ala-Phe-Leu-PyrS2-Cba-BztA-Ser-NH2] | 22 | 10900 |

Further molecules by falling IC50 [1], results first:

| IC50 [1] [nM] | IC50 [2] [nM] | SMILES |
| --- | --- | --- |
| 114 | 16300 | CC(=O)N1CCC[C@]12CC=CCCCC1(CCCC=CCCCOC(=O)N3CC[C@@](C(=O)N[C@@H](Cc4ccccc4Cl)C(=O)N[C@@H](Cc4csc5ccccc45)C(=O)N[C@@H](CO)C(N)=O)(C3)NC(=O)[C@H](CC(C)C)NC(=O)[C@H](Cc3ccccc3)NC(=O)[C@H](C)NC(=O)[C@H](C)NC(=O)[C@H](Cc3cccc(C(=O)O)c3)NC(=O)[C@H](CC(=O)O)NC1=O)NC(=O)[C@H](CC(C)(C)C)NC(=O)[C@H](CC(N)=O)NC2=O (stereo partly drawn) [I-1853, Ac-PL3-Asn-Npg-B5-Asp-3COOHF-Ala-Ala-Phe-Leu-PyrS2-2C1F-BztA-Ser-NH2] |
| 40 | > 20000 | CC(=O)N1CCC[C@]12CC=CCCCC1(CCCC=CCCCOC(=O)N3CC[C@@](C(=O)N[C@@H](Cc4ccsc4)C(=O)N[C@@H](Cc4csc5ccccc45)C(=O)N[C@@H](CCC(N)=O)C(N)=O)(C3)NC(=O)[C@H](CC(N)=O)NC(=O)[C@H](Cc3ccccc3)NC(=O)[C@H](C)NC(=O)[C@H](C)NC(=O)[C@H](CCCNC(=N)N)NC(=O)[C@H](CC(=O)O)NC1=O)NC(=O)[C@H](CC(C)(C)C)NC(=O)[C@H](CC(=O)O)NC2=O (stereo partly drawn) [I-1891, Ac-PL3-Asp-Npg-B5-Asp-Arg-Ala-Ala-Phe-Asn-PyrS2-3Thi-BztA-Gln-NH2] |
| 28 | 5100 | CC(=O)N1CCC[C@]12CC=CCCCC1(CCCC=CCCCOC(=O)N3CC[C@@](C(=O)N[C@@H](Cc4ccccc4Cl)C(=O)N[C@@H](Cc4csc5ccccc45)C(=O)N[C@@H](CO)C(N)=O)(C3)NC(=O)[C@H](CC(C)C)NC(=O)[C@H](Cc3ccccc3)NC(=O)[C@H](C)NC(=O)C(C)(C)NC(=O)[C@H](Cc3cccc(C(=O)O)c3)NC(=O)[C@H](CC(=O)O)NC1=O)NC(=O)[C@H](CC(C)(C)C)NC(=O)[C@H](CC(=O)O)NC2=O (stereo partly drawn) [I-1899, Ac-PL3-Asp-Npg-B5-Asp-3COOHF-Aib-Ala-Phe-Leu-PyrS2-2C1F-BztA-Ser-NH2] |
| 25 | 3800 | CC(=O)N1CCC[C@]12CC=CCCCC1(CCCC=CCCCOC(=O)N3CC[C@@](C(=O)N[C@@H](Cc4ccccc4Cl)C(=O)N[C@@H](Cc4csc5ccccc45)C(=O)N[C@@H](C)C(N)=O)(C3)NC(=O)[C@H](CC(C)C)NC(=O)[C@H](Cc3ccccc3)NC(=O)[C@H](C)NC(=O)[C@H](C)NC(=O)[C@H](Cc3cccc(C(=O)O)c3)NC(=O)[C@H](CC(=O)O)NC1=O)NC(=O)[C@H](CC(C)(C)C)NC(=O)[C@H](CC(=O)O)NC2=O (stereo partly drawn) [I-1851, Ac-PL3-Asp-Npg-B5-Asp-3COOHF-Ala-Ala-Phe-Leu-PyrS2-2C1F-BztA-Ala-NH2] |
| 10 | 19300 | CC(=O)N1CCC[C@]12CC=CCCCC1(CCCC=CCCCOC(=O)N3CC[C@@](C(=O)N[C@@H](Cc4ccsc4)C(=O)N[C@@H](Cc4csc5ccccc45)C(=O)N[C@@H](CCC(N)=O)C(N)=O)(C3)NC(=O)[C@H](Cn3cc(CN(C)C)nn3)NC(=O)[C@H](Cc3ccccc3)NC(=O)[C@H](C)NC(=O)[C@H](C)NC(=O)[C@H](CN(CC(=O)O)CC(F)(F)F)NC(=O)[C@H](CC(=O)O)NC1=O)NC(=O)[C@H](CC(C)(C)C)NC(=O)[C@H](CC(=O)O)NC2=O (stereo partly drawn) [I-1862, Ac-PL3-Asp-Npg-B5-Asp-TfeGA-Ala-Ala-Phe-[CH2NMe2]TriAzDap-PyrS2-3Thi-BztA-Gln-NH2] |
